Measurements published in patent US7968096B2, “Methods and compositions for treating toxoplasma” (priority 2005, dated 2011).

Columns and labels:
Type in all cases: cell-based, Toxoplasma gondii
T. gondii bradyzoites = assay: In vitro transformation of encysted bradyzoites into tachyzoites (P21/SAG1 markers and Hsp90 localization by IFA)
Method: Released PK bradyzoites from brain cysts of infected mice were incubated with 100 nM GA or DMSO for 2 hours, washed, inoculated onto a confluent HFF monolayers, and grown under tachyzoite conditions. IFAs were performed at 4 and 24 hours post-inoculation. To identify mature bradyzoites, parasites were stained using a monoclonal anti-p21 antibody, and tachyzoites were stained using rabbit anti-SAG1. […] The y-axis depicts the number of parasites per/PV-cysts, and the x-axis depicts time in hours. […] The y-axis depicts the number of parasites per/PV-cysts, and the x-axis depicts time in hours. Parasites with cytoplasmic Hsp90 were treated with GA (Hsp90c-GA) or DMSO (Hsp90c-DMSO); parasites with cytoplasmic and nuclear Hsp90 were treated with GA (Hsp90c,n-GA) or DMSO (Hsp90n,c-DMSO). 100 PV-Cysts were counted at random in three independent experiments.
Cysts were isolated from brains of mice infected intraperitoneally 4 weeks before with PK or Me49 strain tachyzoites. Cysts were purified by isopycnic centrifugation on a percoll gradient and encysted bradyzoites were freed by trypsin digestion. In the case of GA experiments, free bradyzoites were incubated in culture media with GA […] or DMSO for 2 h, then parasites were pelleted and washed. One hundred thousand bradyzoites were inoculated onto 12 mm coverslips covered with a confluent monolayer of HFFs. Intracellular localization of Hsp90 was followed by IFA after 4 and 24 hours of infection using anti-Hsp90 serum (1:100). Monoclonal antibodies, specific to the tachyzoite surface protein SAG1 or to the bradyzoite specific protein P21 (mAb T84G10), were used to monitor stage conversion.
GA (InvivoGen, San Diego, Calif.) was dissolved in dimethyl sulfoxide (DMSO) at […]. The drug was diluted in normal culture media to the required concentrations prior to use. A range of concentrations from 1 nM to 5 μM were initially assayed to determine an effective concentration for subsequent experiments. DMSO was added in similar concentrations to control slides. For replication rate studies, the number of parasites per parasitophorous vacuole or cysts (PV-Cyst) was determined for at least 100 PV-Cyst per treatment (GA or DMSO) in replicate experiments. To measure the effect of GA on stage conversion, GA was added in bradyzoite induction experiments (as described above), slides were analyzed by IFA, and the number of P34 positive vacuoles was determined in both GA and DMSO treated cultures. Analysis of intracellular localization of Hsp90 was assessed in the same way but using rabbit anti-TgHsp90 serum. In the in vitro transformation of encysted bradyzoites into tachyzoites experiments, parasites were treated with GA (as described above) and then analyzed by IFA counting P21 and […] positive PV-Cysts in treated and control groups. For replication rate studies, the number of parasites per PV/cysts was determined for at least 100 PV-Cyst per treatment in replicate experiments.

T. gondii [1] = assay: Parasite replication rate under bradyzoite differentiation conditions (parasites per PV-cyst, IFA); settings: 4 days, 100 nM GA
Method: FIG. 5 is a graph showing that geldanamycin A (GA) affects bradyzoite replication rate. PK strain (an avirulent derivative of the Me49 strain) and ΔUPRT strain (a strain with a stage-specific selectable marker) parasites were grown under bradyzoite differentiation conditions for 4 days in the presence of 100 nM of GA or DMSO. IFAs were carried out with rabbit anti-T. gondii Hsp90 serum. Fluorescent parasites were counted and the number of parasites per parasitophorous vacuole (PV)-cysts was graphed. One hundred PV-cysts were counted. Student t test was performed by Prism3™ program (Graphpad). *p 0.05, **p 0.01. The y-axis represents the number of parasites/PV-cysts.
(§1) RH UPRT knock-out parasites can be induced to differentiate into bradyzoites in low CO2, resulting in pyrimidine starvation. […] Bradyzoite induction under this method was assessed and followed by cyst wall detection using the Dolichos biflorus lectin (Boothroyd et al., (1997) Philos Trans R Soc Lond B Biol Sci 352, 1347-1354). […]
GA (InvivoGen, San Diego, Calif.) was dissolved in dimethyl sulfoxide (DMSO) at […]. […] For replication rate studies, the number of parasites per parasitophorous vacuole or cysts (PV-Cyst) was determined for at least 100 PV-Cyst per treatment (GA or DMSO) in replicate experiments. […] Analysis of intracellular localization of Hsp90 was assessed in the same way but using rabbit anti-TgHsp90 serum. […]

T. gondii [2] = assay: Tachyzoite to bradyzoite conversion (P34 marker and Hsp90 subcellular localization by IFA); settings: RH ΔUPRT strain, bradyzoite conditions 4 days, 100 nM GA
Method: FIG. 6 is two graphs showing that GA blocks tachyzoite to bradyzoite conversion. Parasites were grown under bradyzoite differentiation conditions for 4 days in the presence of 100 nM of GA or DMSO. FIG. 6A is RH UPRT knock-out parasites, and FIG. 6B is PK parasites. The y-axes depict the number of parasites/PV cysts. Cytoplasmic (c) and nuclear (n) Hsp90 localization was determined by IFA with rabbit anti-T. gondii Hsp90 serum. Parasites were also stained with the bradyzoite-specific marker p34 and scored as P34 positive (p34+) or negative (p34−). The number of P34−/Hsp90c; P34−/Hsp90c,n; P34+/Hsp90c; and P34+/Hsp90c,n per 100 PV-Cysts was counted at random, in three independent experiments.
as §1, with “starvation. (Bohne et al., (eds) (1997) Stage-specific expression of a selectable marker in T. gondii permits selective inhibition of either tachyzoites or bradyzoites Vol. 88. Mol Biochem Parasitol; Bohne et al., (1997) Mol Biochem Parasitol 88, 115-126).” for “starvation.”

[3] = 24 hours, Me49 bradyzoites incubated 2 hours with GA, washed, tachyzoite conditions
[4] = GA treated bradyzoites, time point not stated

## COC1=C2C[C@@H](C)C[C@H](OC)[C@H](O)[C@@H](C)/C=C(\C)[C@H](OC(N)=O)[C@@H](OC)/C=C\C=C(/C)C(=O)NC(=CC1=O)C2=O [GA, geldanamycin A]
T. gondii bradyzoites; 4 hours post-infection, all parasites (GA and DMSO), Me49 bradyzoites incubated 2 hours
  P21 positive and SAG1 negative parasites: more than 90%
T. gondii bradyzoites; 24 hours post-infection
  parasites exhibiting Hsp90c: 100%
T. gondii bradyzoites; [3]
  SAG1 positive parasites: less than 5%
  parasites remaining P21 positive: more than 90%
T. gondii bradyzoites; [4]
  bradyzoites showing Hsp90c staining: 80%
  bradyzoites showing Hsp90n,c staining pattern: 20%
T. gondii bradyzoites; bradyzoites treated with GA
  reduction of level of invasion compared with DMSO treated parasites: 40-66%
T. gondii [1]; PK strain
  reduction of parasite growth compared to DMSO controls: ~3 fold
T. gondii [1]; RH strain
  reduction of parasite growth compared to DMSO controls: ~2 fold
T. gondii [2]
  parasite vacuoles showing P34- and Hsp90c (tachyzoite phenotype): about 75%
